According to US10086006B2, “Method for improving drug treatments in mammals” (priority 2013, dated 2018):
In brackets after ≈: the same amount, converted by molar mass. Where two headings read alike, the source gives them in different places.

Columns and labels:
[1] = test system: Escherichia coli (ATCC 25922); assay: Susceptibility test (MIC) of fosfomycin against wild-type Escherichia coli; format: cell-based
Procedure: MIC as used herein refers to the minimum inhibitory concentration (MIC) of an antimicrobial that will inhibit the visible growth of a microorganism after overnight incubation. MICs are important in diagnostic laboratories to confirm resistance of microorganisms to an antimicrobial agent and also to monitor the activity of new antimicrobial agents. A MIC is generally regarded as the most basic laboratory measurement of the activity of an antimicrobial agent against an organism. Clinically, the MICs are used not only to determine the amount of antibiotic that a patient will receive but also the type of antibiotic used, which in turn lowers the opportunity for microbial resistance to specific antimicrobial agents. Applying MIC testing to a number of bacterial strains in the same species provides an estimate of the concentration that inhibits 50% (MIC50) and 90% (MIC90) of bacterial isolates and can indicate shifts in susceptibility of bacterial populations to antibiotics.
(§1) A dose-fractionation study was conducted utilizing a wild-type strain of Escherichia coli (ATCC 25922; fosfomycin MIC=0.5 mg/L agar; 1 mg/L broth microtiter) in a one-compartment in vitro infection model where the human drug concentration-time profile was simulated over a 24 hour study period.
(§2) Another reason may be the volume of the micro-titer well (100-200 μL) used in the test method is small, containing 50,000-100,000 CFU. The inherently fosfomycin-resistant subpopulation has a frequency of 1 in 350,000 CFU. Thus, for fosfomycin, the standard susceptibility test method is an insensitive measure of the drug concentration required to inhibit a clinically relevant bacterial inoculum.

[2] = test system: fosfomycin-resistant E. coli subpopulation (ATCC 25922); assay: Susceptibility (agar MIC, RIC) of the inherently fosfomycin-resistant subpopulation; format: cell-based, Escherichia coli; conditions: resistant subpopulation within the standard starting inoculum 5×10^5 CFU/mL
Procedure: RIC as used herein refers to the resistant inhibitory concentration and identifies the concentrations of antimicrobial required to inhibit the less susceptible or ‘resistant’ mutant subpopulation of organisms. RIC is a new term coined by the inventors of the present invention and is utilized throughout the specification herewith.
as §2
(§3) Note the relatively stronger relationship between the change in bacterial density and AUC0-24:RIC ratio and % T>RIC compared with that for Cmax:RIC ratio, where RIC is the concentration needed to inhibit the fosfomycin-resistant subpopulation.

[3] = test system: Escherichia coli (ATCC 25922); assay: Dose-fractionation study in a one-compartment in vitro infection model; format: cell-based
Procedure: as §1
In such a circumstance, one way to overcome the poor sensitivity of the susceptibility test method is to increase the inoculum size and/or the volume of test system. The one-compartment in vitro infection model is a much more sensitive tool to measure the drug concentration required to inhibit a clinically relevant bacterial inoculum owing to its ability accommodate a higher inoculum and the larger volume (125 mL) of the test system. For this reason, dose-fractionation studies were conducted using a one-compartment in vitro infection model to identify the PK-PD measure most closely associated with efficacy.
as §3

[4] = test system: Escherichia coli ATCC 25922; assay: Neutropenic murine-thigh infection model; format: in vivo; conditions: neutropenic mice
Procedure: In vivo animal studies utilizing the neutropenic murine-thigh model were conducted to confirm key results obtained from the in vitro PK-PD infection models. Initial goals of the studies were to confirm the presence of a clinically-relevant fosfomycin-resistant subpopulation in vivo and to confirm % T>RIC was the PK-PD measure that predicted response.
In brief, six-week-old specific-pathogen-free female CD1 (ICR/Swiss) mice were rendered neutropenic by two intra-peritoneal injections of cyclophosphamide, 150 mg/kg of body weight 4 days prior to the study and 100 mg/kg 1 day prior to the study. The challenge isolate was Escherichia coli ATCC 25922 (fosfomycin MIC, 1 mg/L), which was the same strain used in the aforementioned in vitro PK-PD infection model studies. […]
To determine which PK-PD measure best described efficacy, the number of bacteria in the thigh at the end of 24 hours of therapy (or earlier for some of the lowest doses) was correlated with 1) the Cmax:MIC ratio, 2) the 24-hour AUC0-24:MIC ratio, 3) the percentage of the dosing interval during that serum concentrations exceed the MIC, and 4) the percentage of the dosing interval during that serum concentrations exceed the RIC for each of the dosage regimens studied. […] The correlation between efficacy and each of the […] PK-PD indices was determined by nonlinear least-squares multivariate regression. […]

`C[C@@H]1O[C@@H]1P(=O)(O)O` [fosfomycin] gave an MIC ([1]; ATCC25922, E. coli ATCC 25922 challenge isolate, method not stated, read-out: fosfomycin MIC of the challenge isolate) of 1 µg/mL, an MIC ([1]; ATCC25922, agar, wild-type E. coli ATCC 25922, read-out: fosfomycin MIC (agar)) of 0.5 µg/mL (≈ 3.62 µM) and an MIC ([1]; ATCC25922, broth microtiter, wild-type E. coli ATCC 25922, read-out: fosfomycin MIC (broth microtiter)) of 1 µg/mL (≈ 7.24 µM). For the same molecule, the MIC ([2]; Escherichia coli, ATCC25922, agar) was 32 to 64 µg/mL, the “agar MIC of the fosfomycin-resistant subpopulation” value ([2]; agar) was 32 µg/mL and the “relation of bacterial killing to dosing interval” value ([3]; at maximally effective AUC0-24:RIC ratios and free-drug % T>RIC, 24 hour) was “as the duration of the dosing interval decreases, the amount of bacterial killing increases”. The “range of the change in bacterial density at 24 hours between regimens” value ([3]; regimens identical in total daily dose and % T>MIC (100%), differing in dosing interval, simulated human concentration-time profile) was 8 log10, the “density of the drug-resistant subpopulation in the thighs after 24 hours of therapy” value ([4]; dose range 1.56 to 400 mg/kg every 3 hours) was “eliminated at the highest dose-level” and the “PK-PD measure correlated with change in log10 CFU in the thighs after 24 hours of therapy” value ([4]; dosing intervals of 3, 6, 12, and 24 hours) was “% T>RIC was well-correlated with change in bacterial density”.
